# Source: ChEMBL document CHEMBL2413072, “Synthesis and in vitro anticancer studies of novel C-2 arylidene congeners of lantadenes” (2013)
# What was measured:
# Assay type in all cases: functional
# OVCAR-8 [1] = assay: Growth inhibition of human OVCAR8 cells by sulforhodamine B assay
# UO-31 [2] = assay: Growth inhibition of human UO31 cells assessed as cell growth at 10^-8 M by sulforhodamine B assay; settings: read-out: Activity
# HOP-62 [3] = assay: Growth inhibition of human HOP62 cells assessed as growth inhibition at 10 uM by sulforhodamine B assay; settings: read-out: GI
# SF-295 = assay: Growth inhibition of human SF295 cells assessed as cell growth at 10^-6 M by sulforhodamine B assay; settings: read-out: Activity
# K562 = assay: Growth inhibition of human K562 cells assessed as cell growth at 10^-4 M by sulforhodamine B assay; settings: read-out: Activity
# SN12C = assay: Growth inhibition of human SN12C cells assessed as cell growth at 10 uM by sulforhodamine B assay; settings: read-out: Activity
# CAKI-1 [4] = assay: Growth inhibition of human CAKI-1 cells assessed as cell growth at 10 uM by sulforhodamine B assay; settings: read-out: Activity
# UACC-257 [5] = assay: Growth inhibition of human UACC257 cells assessed as growth inhibition at 10 uM by sulforhodamine B assay; settings: read-out: GI
# HOP-62 [6] = assay: Growth inhibition of human HOP62 cells assessed as cell growth at 10^-6 M by sulforhodamine B assay; settings: read-out: Activity
# SK-OV-3 [7] = assay: Growth inhibition of human SKOV3 cells assessed as growth inhibition at 10 uM by sulforhodamine B assay; settings: read-out: GI
# [8] = Growth inhibition of human Hs 578T cells assessed as cell growth at 10 uM by sulforhodamine B assay; settings: read-out: Activity
# U-251 = assay: Growth inhibition of human U251 cells assessed as cell growth at 10^-8 M by sulforhodamine B assay; settings: read-out: Activity
# SK-MEL-2 = assay: Growth inhibition of human SK-MEL-2 cells assessed as cell growth at 10^-8 M by sulforhodamine B assay; settings: read-out: Activity
# OVCAR-8 [9] = assay: Growth inhibition of human OVCAR8 cells assessed as growth inhibition at 10 uM by sulforhodamine B assay; settings: read-out: GI
# OVCAR-4 [10] = assay: Growth inhibition of human OVCAR4 cells assessed as growth inhibition at 10 uM by sulforhodamine B assay; settings: read-out: GI
# UACC-62 = assay: Growth inhibition of human UACC62 cells assessed as cell growth at 10^-7 M by sulforhodamine B assay; settings: read-out: Activity
# HT-29 = assay: Growth inhibition of human HT-29 cells assessed as growth inhibition at 10 uM by sulforhodamine B assay; settings: read-out: GI
# OVCAR-8 [11] = assay: Growth inhibition of human OVCAR8 cells assessed as cell growth at 10 uM by sulforhodamine B assay; settings: read-out: Activity
# UACC-257 [12] = assay: Growth inhibition of human UACC257 cells assessed as cell growth at 10^-6 M by sulforhodamine B assay; settings: read-out: Activity
# MDA-MB-231 = assay: Growth inhibition of human MDA-MB-231 cells assessed as cell growth at 10^-8 M by sulforhodamine B assay; settings: read-out: Activity
# NCI-H522 = assay: Growth inhibition of human NCI-H522 cells assessed as cell growth at 10 uM by sulforhodamine B assay; settings: read-out: Activity
# RPMI-8226 = assay: Growth inhibition of human RPMI8226 cells assessed as cell growth at 10^-6 M by sulforhodamine B assay; settings: read-out: Activity
# SNB-75 [13] = assay: Growth inhibition of human SNB75 cells assessed as cell growth at 10 uM by sulforhodamine B assay; settings: read-out: Activity
# SK-OV-3 [14] = assay: Growth inhibition of human SKOV3 cells assessed as cell growth at 10 uM by sulforhodamine B assay; settings: read-out: Activity
# SF-268 = assay: Growth inhibition of human SF268 cells assessed as cell growth at 10^-7 M by sulforhodamine B assay; settings: read-out: Activity
# CAKI-1 [15] = assay: Growth inhibition of human CAKI-1 cells assessed as growth inhibition at 10 uM by sulforhodamine B assay; settings: read-out: GI
# SR [16] = assay: Growth inhibition of human SR cells assessed as growth inhibition at 10 uM by sulforhodamine B assay; settings: read-out: GI
# NCI-H23 [17] = assay: Growth inhibition of human NCI-H23 cells assessed as growth inhibition at 10 uM by sulforhodamine B assay; settings: read-out: GI
# SNB-75 [18] = assay: Growth inhibition of human SNB75 cells assessed as growth inhibition at 10 uM by sulforhodamine B assay; settings: read-out: GI
# OVCAR-4 [19] = assay: Growth inhibition of human OVCAR4 cells assessed as cell growth at 10^-8 M by sulforhodamine B assay; settings: read-out: Activity
# SR [20] = assay: Growth inhibition of human SR cells assessed as cell growth at 10^-7 M by sulforhodamine B assay; settings: read-out: Activity
# BT-549 = assay: Growth inhibition of human BT549 cells assessed as cell growth at 10^-8 M by sulforhodamine B assay; settings: read-out: Activity
# LOX IMVI = assay: Growth inhibition of human LOXIMVI cells assessed as cell growth at 10^-6 M by sulforhodamine B assay; settings: read-out: Activity
# UO-31 [21] = assay: Growth inhibition of human UO31 cells assessed as cell growth at 10^-4 M by sulforhodamine B assay; settings: read-out: Activity
# SK-MEL-28 = assay: Growth inhibition of human SK-MEL-28 cells assessed as cell growth at 10^-6 M by sulforhodamine B assay; settings: read-out: Activity
# A498 = assay: Growth inhibition of human A498 cells assessed as growth inhibition at 10 uM by sulforhodamine B assay; settings: read-out: GI
# NCI-H23 [22] = assay: Growth inhibition of human NCI-H23 cells assessed as cell growth at 10^-7 M by sulforhodamine B assay; settings: read-out: Activity
# HCT-116 = assay: Growth inhibition of human HCT116 cells assessed as cell growth at 10 uM by sulforhodamine B assay; settings: read-out: Activity
# KM12 = assay: Growth inhibition of human KM12 cells assessed as cell growth at 10^-7 M by sulforhodamine B assay; settings: read-out: Activity
# TK-10 = assay: Growth inhibition of human TK10 cells assessed as cell growth at 10 uM by sulforhodamine B assay; settings: read-out: Activity
# MDA-MB-435 [23] = assay: Growth inhibition of human MDA-MB-435 cells assessed as cell growth at 10^-6 M by sulforhodamine B assay; settings: read-out: Activity
# MDA-MB-435 [24] = assay: Growth inhibition of human MDA-MB-435 cells assessed as cell growth at 10^-4 M by sulforhodamine B assay; settings: read-out: Activity
# [25] = Growth inhibition of human NCI-ADR-RES cells assessed as cell growth at 10 uM by sulforhodamine B assay; settings: read-out: Activity
# HOP-92 = assay: Growth inhibition of human HOP92 cells assessed as cell growth at 10^-6 M by sulforhodamine B assay; settings: read-out: Activity
# [26] = Growth inhibition of human NCI-ADR-RES cells assessed as cell growth at 10^-4 M by sulforhodamine B assay; settings: read-out: Activity
# HOP-62 [27] = assay: Growth inhibition of human HOP62 cells assessed as cell growth at 10 uM by sulforhodamine B assay; settings: read-out: Activity
# SR [28] = assay: Growth inhibition of human SR cells assessed as cell growth at 10^-4 M by sulforhodamine B assay; settings: read-out: Activity
# Malme-3M = assay: Growth inhibition of human MALME-3M cells assessed as cell growth at 10^-6 M by sulforhodamine B assay; settings: read-out: Activity
# [29] = read-out: LC50 (the source's name)
# [30] = read-out: pLC50 (the source's name) (converted)
smiles,measurement,setting,value
CC(C)=CC(=O)O[C@@H]1CC(C)(C)C[C@H]2C3=CC[C@@H]4[C@@]5(C)CC[C@H](O)C(C)(C)[C@@H]5CC[C@@]4(C)[C@]3(C)CC[C@@]12C(=O)O [Reduced Lantadene B],GI50,OVCAR-8 [1]; read-out: GI50,4.68 µM
same,CC50,OVCAR-8 [1]; [29],> 100 µM
same,TGI,OVCAR-8 [1]; read-out: TGI,28.9 µM
same,GI50,OVCAR-8 [1]; read-out: pGI50 (converted),4.68 µM
same,CC50,OVCAR-8 [1]; [30],> 100 µM
same,TGI,OVCAR-8 [1]; read-out: pTGI (converted),28.8 µM
same,growth at 0.01 µM,UO-31 [2],89%
same,inhibition of growth at 10 µM,HOP-62 [3],46.3%
same,growth at 1 µM,SF-295,59%
same,growth at 100 µM,K562,-1%
same,growth at 10 µM,SN12C,50.9%
same,growth at 10 µM,CAKI-1 [4],35.6%
same,inhibition of growth at 10 µM,UACC-257 [5],< 10%
same,growth at 1 µM,HOP-62 [6],88%
same,inhibition of growth at 10 µM,SK-OV-3 [7],10.6%
same,growth at 10 µM,[8],85.5%
same,growth at 0.01 µM,U-251,96%
same,growth at 0.01 µM,SK-MEL-2,97%
same,inhibition of growth at 10 µM,OVCAR-8 [9],40.1%
same,inhibition of growth at 10 µM,OVCAR-4 [10],29.3%
same,growth at 0.1 µM,UACC-62,90%
same,inhibition of growth at 10 µM,HT-29,50.7%
same,growth at 10 µM,OVCAR-8 [11],59.9%
same,growth at 1 µM,UACC-257 [12],98%
same,growth at 0.01 µM,MDA-MB-231,111%
same,growth at 10 µM,NCI-H522,67.7%
same,growth at 1 µM,RPMI-8226,65%
same,growth at 10 µM,SNB-75 [13],73.2%
same,growth at 10 µM,SK-OV-3 [14],89.4%
same,growth at 0.1 µM,SF-268,93%
same,inhibition of growth at 10 µM,CAKI-1 [15],64.4%
same,inhibition of growth at 10 µM,SR [16],29.8%
same,inhibition of growth at 10 µM,NCI-H23 [17],36.6%
same,inhibition of growth at 10 µM,SNB-75 [18],26.8%
same,growth at 0.01 µM,OVCAR-4 [19],100%
same,growth at 0.1 µM,SR [20],104%
same,growth at 0.01 µM,BT-549,97%
same,growth at 1 µM,LOX IMVI,88%
same,growth at 100 µM,UO-31 [21],-87%
same,growth at 1 µM,SK-MEL-28,97%
same,inhibition of growth at 10 µM,A498,< 10%
same,growth at 0.1 µM,NCI-H23 [22],92%
same,growth at 10 µM,HCT-116,27.2%
same,growth at 0.1 µM,KM12,79%
same,growth at 10 µM,TK-10,79.9%
same,growth at 1 µM,MDA-MB-435 [23],95%
same,growth at 100 µM,MDA-MB-435 [24],-26%
same,growth at 10 µM,[25],54.5%
same,growth at 1 µM,HOP-92,70%
same,growth at 100 µM,[26],-30%
same,growth at 10 µM,HOP-62 [27],53.7%
same,growth at 100 µM,SR [28],-26%
same,growth at 1 µM,Malme-3M,104%
CC1(C)C[C@@H](O)[C@]2(C(=O)O)CC[C@]3(C)C(=CC[C@@H]4[C@@]5(C)C/C(=C\C=C\c6ccccc6)C(=O)C(C)(C)[C@@H]5CC[C@]43C)[C@@H]2C1,GI50,OVCAR-8 [1]; read-out: GI50,3.41 µM
same,CC50,OVCAR-8 [1]; [29],60.8 µM
same,TGI,OVCAR-8 [1]; read-out: TGI,14.2 µM
same,GI50,OVCAR-8 [1]; read-out: pGI50 (converted),3.39 µM
same,CC50,OVCAR-8 [1]; [30],60.3 µM
same,TGI,OVCAR-8 [1]; read-out: pTGI (converted),14.1 µM
same,growth at 0.01 µM,UO-31 [2],88%
same,inhibition of growth at 10 µM,HOP-62 [3],37.2%
same,growth at 1 µM,SF-295,88%
same,growth at 100 µM,K562,1%
same,growth at 10 µM,SN12C,45.5%
same,growth at 10 µM,CAKI-1 [4],43%
same,inhibition of growth at 10 µM,UACC-257 [5],38%
same,growth at 1 µM,HOP-62 [6],97%
same,inhibition of growth at 10 µM,SK-OV-3 [7],14.3%
same,growth at 10 µM,[8],58.4%
same,growth at 0.01 µM,U-251,92%
same,growth at 0.01 µM,SK-MEL-2,86%
same,inhibition of growth at 10 µM,OVCAR-8 [9],57%
same,inhibition of growth at 10 µM,OVCAR-4 [10],45.8%
same,growth at 0.1 µM,UACC-62,93%
same,inhibition of growth at 10 µM,HT-29,48.3%
same,growth at 10 µM,OVCAR-8 [11],43%
same,growth at 1 µM,UACC-257 [12],89%
same,growth at 0.01 µM,MDA-MB-231,108%
same,growth at 10 µM,NCI-H522,47.7%
same,growth at 1 µM,RPMI-8226,92%
same,growth at 10 µM,SNB-75 [13],72.1%
same,growth at 10 µM,SK-OV-3 [14],85.7%
same,growth at 0.1 µM,SF-268,91%
same,inhibition of growth at 10 µM,CAKI-1 [15],57%
same,inhibition of growth at 10 µM,SR [16],37.4%
same,inhibition of growth at 10 µM,NCI-H23 [17],40.3%
same,inhibition of growth at 10 µM,SNB-75 [18],27.9%
same,growth at 0.01 µM,OVCAR-4 [19],100%
same,growth at 0.1 µM,SR [20],100%
same,growth at 0.01 µM,BT-549,101%
same,growth at 1 µM,LOX IMVI,101%
same,growth at 100 µM,UO-31 [21],-82%
same,growth at 1 µM,SK-MEL-28,97%
same,inhibition of growth at 10 µM,A498,< 10%
same,growth at 0.1 µM,NCI-H23 [22],95%
same,growth at 10 µM,HCT-116,17.5%
same,growth at 0.1 µM,KM12,99%
same,growth at 10 µM,TK-10,88.3%
same,growth at 1 µM,MDA-MB-435 [23],95%
same,growth at 100 µM,MDA-MB-435 [24],-43%
same,growth at 10 µM,[25],76.2%
same,growth at 1 µM,HOP-92,76%
same,growth at 100 µM,[26],-87%
same,growth at 10 µM,HOP-62 [27],62.8%
same,growth at 100 µM,SR [28],-24%
same,growth at 1 µM,Malme-3M,96%
